The source of these data is patent US20260223861A1, “NATURAL PESTICIDAL COMPOSITIONS AND METHODS OF CONTROLLING ARTHROPODS” (TERRAMERA, INC., priority 2023, published 2026).

The assay has as its system German cockroaches. The assay can be described thus: Spraying compositions on German cockroaches, knock-down and mortality (dead incl. moribund) observed. The class given is in vivo. Particulars: knocked-down and dead insects, concentrations w/w in water. As to the method: In the following in vitro examples, various compounds were combined and the resulting composition was tested for efficacy. Each composition was mixed using a magnetic stir bar at room temperature (21° C.), except as otherwise noted herein. […] Water-insoluble and/or -immiscible ingredients, such as wintergreen oil, geraniol, oleic acid, and Na oleate, were dissolved and mixed as a separate fraction (the water-insoluble fraction). The water-insoluble fraction was then mixed with the water-soluble fraction by gentle stirring. All tested compositions comprised the tested compounds in solution with water. Each composition was tested for efficacy by spraying the composition on German cockroaches and observing the number of knocked-down and dead (including moribund) insects twice, once at 5 minutes after spraying and once at 48 hours after spraying. Either such measure of knock-down and mortality can be important in certain contexts. For example, 5-minute knock-down and mortality can be important in consumer contexts, as efficacy is often assessed over a short interval in such contexts. Shorter intervals, such as 30 seconds or 1 minute, are also or alternatively sometimes used in such contexts. As another example, 48-hour knock-down and mortality can be important in agricultural or industrial contexts, as total reduction in pest pressure may be more readily assessed over longer periods in such contexts. […] Ingredients were also tested for efficacy on their own (in dilution in water to provide the same concentration of the ingredient as in the tested compositions) using the same testing procedure. An expected efficacy for each formulation was determined based on the ingredients' individual tested efficacies based on the Colby equation, as described in greater detail by Ferry, Nancy; Stanley, Bruce H.; and Armel, Gregory (2005). “DESIGN AND […] OF BIOLOGICAL ASSAYS OF MIXTURES,” Conference on Applied Statistics in Agriculture. https://doi.org/10.4148/2475-7772.1133. Compositions with efficacy greater than this expected efficacy were determined to show synergistic efficacy.

Setting [1] is: 5 minutes after spraying, sulfate.
Where [2] appears, read: 48 hours after spraying, sulfate.

SMILES strings stand for the structures. “And” between values parts separate entries of the source, which are not always exact repeats. Equal values may be shown once.

For `[Cl-].[Na+]` [NaCl (2.5%), NaCl], the “Observed Efficacy” value runs as follows: (5 minutes after spraying) 0%; (48 hours after spraying) 0%.

`CC(C)O` [Isopropyl alcohol (10%), Isopropyl alcohol]: the “Observed Efficacy” value (5 minutes after spraying) was found to be 0% and the “Observed Efficacy” value (48 hours after spraying) is 0%.

`CCCCCCCC/C=C\CCCCCCCC(=O)O` [Oleic Acid (5%), Oleic acid]: the “Observed Efficacy” value is recorded as 0% (5 minutes after spraying) and 0% (48 hours after spraying).

For the molecule `CCCCCCCCCCCCOS(=O)(=O)[O-].[Na+]` [Sodium Lauryl Sulfate (10%), Sodium lauryl sulfate], the “Observed Efficacy” value is, setting by setting: (5 minutes after spraying, listed as Sodium lauryl sulfate (10%), sulfate) 0%; under setting [1], 0%; (48 hours after spraying, listed as Sodium lauryl sulfate (10%), sulfate) 0%; under setting [2], 0%.

As to `CC(C)O` [Isopropyl alcohol (5%), Isopropyl alcohol], the “Observed Efficacy” value (5 minutes after spraying) is recorded as 0% and the “Observed Efficacy” value (48 hours after spraying) stood at 0%.

Turning to `CCCCCCCCCCCCOS(=O)(=O)[O-].[Na+]` [Sodium Lauryl Sulfate (5%), Sodium lauryl sulfate], the “Observed Efficacy” value was 7% (5 minutes after spraying, listed as Sodium lauryl sulfate (5%), sulfate); 7% under setting [1]; 7% (48 hours after spraying, listed as Sodium lauryl sulfate (5%), sulfate); 7% under setting [2].

Regarding `CC(C)=CCC/C(C)=C/CO` [Geraniol (2.5%), Geraniol], the “Observed Efficacy” value reads like this: (5 minutes after spraying) 20%; (48 hours after spraying) 20%.

With `CCCCCCCC/C=C\CCCCCCCC(=O)OCC(O)CO` (stereo not shown) [Glycerol Monooleate (1.25%), Glycerol monooleate], the “Observed Efficacy” value is 0% (5 minutes after spraying) and 0% (48 hours after spraying).

Turning to `CC(C)=CCC/C(C)=C/CO` [Geraniol (5%), Geraniol], the “Observed Efficacy” value is, setting by setting: (5 minutes after spraying) 7%; (48 hours after spraying) 7%.

Turning to `CCCCOC(=O)C(C)O` (stereo not shown) [Butyl Lactate (20%), Butyl lactate], the “Observed Efficacy” value is reported as 13% (5 minutes after spraying) and 13% (48 hours after spraying).

Turning to `CC(C)=CCC/C(C)=C/CO` [Geraniol (10%), Geraniol], the “Observed Efficacy” value (5 minutes after spraying) came out at 27% and the “Observed Efficacy” value (48 hours after spraying) stood at 27%.

`CCCCCCCCCCCCOS(=O)(=O)[O-].[Na+]` [Sodium Lauryl Sulfate (2.5%), Sodium lauryl sulfate]: the “Observed Efficacy” value was found to be 0% under setting [1] and 0% under setting [2].

Regarding `CC(C)=CCC/C(C)=C/CO` [Geraniol (20%), Geraniol], the “Observed Efficacy” value runs as follows: (5 minutes after spraying) 5%; (48 hours after spraying) 5%.

As to `CCCCOC(=O)C(C)O` (stereo not shown) [Butyl Lactate (10%), Butyl lactate], the “Observed Efficacy” value worked out at 7% (5 minutes after spraying) and 7% (48 hours after spraying).

Turning to `CCCCCCCC/C=C\CCCCCCCC(=O)O` [Oleic Acid (20%), Oleic acid], the “Observed Efficacy” value runs as follows: (5 minutes after spraying) 5% and 0%; (48 hours after spraying) 5% and 0%.

As for `CCCCCCCCCCCCOS(=O)(=O)[O-].[Na+]` [Sodium Lauryl Sulfate (1.25%), Sodium lauryl sulfate], the “Observed Efficacy” value is, setting by setting: under setting [1], 0%; under setting [2], 0%.

As for `CCCCOC(=O)C(C)O` (stereo not shown) [Butyl Lactate (2.5%), Butyl lactate], the “Observed Efficacy” value came to 0% (5 minutes after spraying) and 0% (48 hours after spraying).

On to `CCCCOC(=O)C(C)O` (stereo not shown) [Butyl Lactate (5%), Butyl lactate], for which the “Observed Efficacy” value is, setting by setting: (5 minutes after spraying) 13%; (48 hours after spraying) 13%.
